# From patent publication US20240358727A1, “MICROSCALE THERMOPHORESIS TO EVALUATE CHANNEL LIPID INTERACTIONS AND METHODS OF TREATING NAV CHANNELS RELATED DISEASES” (Northeastern University, priority 2023, published 2024)
# “Also recorded” adds a separate entry of the source.
# Assays:
# Nav1.5 = target: T1, Nav1.5 (Homo sapiens, UniProt Q14524); assay: Whole-cell patch clamp of Nav1.5 stable cells with optogenetic PI-phosphatases and diC8PI(4,5)P2 in the pipette; type: cell-based; settings: for left shift in the I-V relationship / shift in V½SSI / shift in V½act / V½SSI / V½act: 200 μM diC8PI(4,5)P2; for current density: 200 μM diC8PI(4,5)P2, −55 mV; for τinact / ILATE: diC8PI(4,5)P2; for ILATE: % of Ipeak
# T1 construct: expressed in transfected cells
# Experimental: Nav1.5 channels were studied with Navβ1 (SCNIB, isoform b; NM_001037) in pRAT, a CMV driven vector. N-terminal CRY2-tagged pseudojanin in pMaX(+) vector was generated by Genscript (Piscataway, NY). Purified diC8PI(4,5)P2 was purchased from Echelon Biosciences.
# HEK293-T cells were purchased from American Type Culture Collection (ATCC, catalog no. CRL-3216). The cells were cultured in 60-mm dishes in Dulbecco's Modified Eagle Medium (DMEM) (Sigma-Aldrich) that was supplemented with a combination of 100 units/ml of penicillin, 100 μg/ml of streptomycin and 10% Fetal Bovine Serum (FBS). Stable cells were cultured in previously mentioned DMEM, penicillin, streptomycin, and FBS medium with addition of 2 μg/ml puromycin, 5 μg/ml blasticidin, 200 μg/ml geneticin (G418). Both cell lines were incubated at 5% CO2 at 37° C. 24 hours before transfection cells from either cell lines were seeded on glass coverslips in 35-mm dishes. Both cell lines were transfected in OptiMEM using polyethyleneimine (PEI) at a 1 μg of DNA: 4 μL PEI to 1 μg of DNA: 6 μL PEI ratio for 2-4 hours. HEK293-T cells were transfected with 1.5 μg of channel DNA and 1 μg of the beta subunit alone and alongside light-activated constructs. Stable cells were transfected with 1p g of the beta subunit alone and alongside light-activated constructs. Electrophysiology recordings were performed within 24-48 hours after transfection at room temperature.
# Both the HEK293-T, and Nav1.5 stable cells were studied under whole-cell patch clamp. Sodium currents were recorded using the Tecella Pico-2 amplifier (Tecella) and WinWCP software (University of Strathclyde) at a low pass (Bessel) filter of 9 kHz and sampled at 50 kHz frequencies. The borosilicate glass (Clark Kent) patch pipettes were pulled to a resistance of 2-4 MQ using the vertical puller (Narishige) when filled with internal solution. The internal solution contained (in mM): 60 CsCl, 80 CsF, 2 MgCl2·6H2O, 10 EGTA, 5 HEPES, 5 Na2ATP, pH 7.4 with CsOH. Cells were perfused through a multichannel gravity-driven perfusion manifold (Warner) with an extracellular solution containing (in mM): 130 NaCl, 5 CsCl, 1.2 MgCl2·6H2O, 1.5 CaCl2), 8 Glucose, 10 HEPES. Cells with a series resistance less than 15 MQ were studied.
# Current-voltage relationships were evoked by a 250-ms test pulse between −80 mV to 35 mV, in 5 mV increments. Steady-state inactivation was studied by holding cells at −120 mV and then comparing currents that were evoked by a 50 ms test pulse between −120 mV and −20 mV to those evoked by a 500 ms pre-pulse to 30 mV, in 10 mV increments. Normalized peak currents were then plotted against pre-pulse potential (mV). To determine voltage-dependence, the data was normalized and plotted against the driving force and fitted to a Boltzmann function, I=Imax(1+exp[V−V1/2/k]), where Imax is maximum current and k is the slope factor to generate normalized conductance-voltage (G-V) relationship. The ILATE was evoked by a single test pulse between −90 mV and −20 mV. ILATE was calculated from the last 10 ms of this 250 ms test pulse. From this recording protocol, the time constant for inactivation (T) was determined from a mono-exponential fit of normalized current amplitude using It=Imax+A [e^−t/τ], A is amplitude and t is time. All whole-cell currents were normalized to the capacitance of cell.
# Experiments were set up similar to those in Gada et al (2023). Optogenetic studies were conducted simultaneously alongside patch-clamp. Here the photoactivation of cells was conducted in the epifluorescence-mode to utilize continuous excitation from a broad-spectrum LED (Excelitas) through a 448/20 nm filter (Chroma), via a 20× objective lens (Olympus). A photometer (ThorLabs) was used to measure the light output which measured at 50 mW/cm^2. […]
# Nav1.5-K1493E = target: T2, Nav1.5-K1493E (Homo sapiens, UniProt Q14524, K1493E); assay: Whole-cell ILATE of Nav1.5-K1493E with CRY2-5ptase; type: cell-based; settings: 200 μM diC8-PI(4,5)P2 in pipette
# T2 construct: expressed in transfected cells; HEK293T
# Source text: FIGS. 31A-31D show representative currents from Nav1.5-K1493E showing enhanced ILATE that is further augmented by activation of CRY2-5ptase.
# Multiple dysrhythmic disorders are associated with mutations in Nav1.5. Nav1.5-E1784K is the most common variant and is associated with LQT3, BrS, and sinus node dysfunction. E1784K is in the proximal C-terminal domain where it disrupts an interaction with K1493 (DIII-DIV linker) that alters channel gating and increases ILATE. The complementary mutation, K1493E also augments ILATE. […] These findings indicate a potential role for PI(4,5)P2 in the mechanism of, at least some, Nav1.5 disease mutants.
# [1] = 200 μM diC8PI(4,5)P2 in pipette
# [2] = CRY2-5POCRL + CRY2-Sac2, BL vs control
# [3] = CRY2-5POCRL + CRY2-Sac2, control (before BL)
# [4] = CRY2-5POCRL, control (before BL)
# [5] = CRY2-5POCRL, diC8PI(4,5)P2 enriched vs BL without diC8PI(4,5)P2
structure (smiles),measurement,setting,value
CCCCCCCC(=O)OC[C@H](COP(=O)(O)O[C@@H]1[C@H](O)[C@H](O)[C@@H](OP(=O)(O)O)[C@H](OP(=O)(O)O)[C@H]1O)OC(=O)CCCCCCC [diC8-PIP2],effect on CRY2-5POCRL (CRY2-5P) dephosphorylation effects,Nav1.5; [1],partially opposes; also recorded: partially reverses
same,"effect on CRY2-5POCRL/Sac2 dephosphorylation effects (activation, SSI)",Nav1.5; [1],partially opposes
same,left shift in the I-V relationship,"Nav1.5; CRY2-5POCRL + CRY2-Sac2, BL vs before BL",−1.87 mV
same,shift in V½SSI,Nav1.5; [2],−9.1±1.62 mV
same,shift in V½act,Nav1.5; [2],−1.87±1.52 mV
same,V½SSI,"Nav1.5; CRY2-5POCRL + CRY2-Sac2, BL",−80.48±1.75 mV
same,V½act,"Nav1.5; CRY2-5POCRL + CRY2-Sac2, BL",−53.17±1.49 mV
same,current density,"Nav1.5; CRY2-5POCRL + CRY2-Sac2, BL",−203.83±59.93 pA/pF
same,V½SSI,Nav1.5; [3],−71.75±1.84 mV
same,V½act,Nav1.5; [3],−51.30±1.7 mV
same,effect on changes in window current,"Nav1.5; CRY2-5POCRL + CRY2-Sac2, diC8PI(4,5)P2",does not oppose
same,difference in V½act,"Nav1.5; CRY2-5POCRL + CRY2-Sac2, diC8PI(4,5)P2 enriched before BL vs BL without diC8PI(4,5)P2",−6.518 mV
same,difference in V½SSI,"Nav1.5; CRY2-5POCRL + CRY2-Sac2, diC8PI(4,5)P2 enriched vs BL without diC8PI(4,5)P2",−8.73±2.61
same,current density,"Nav1.5; CRY2-5POCRL + CRY2-Sac2, without BL",−80.94±28.21 pA/pF
same,shift in V½SSI,"Nav1.5; CRY2-5POCRL, BL vs control",−0.9383±2.01 mV
same,shift in V½act,"Nav1.5; CRY2-5POCRL, BL vs control",−8.61±0.77 mV
same,V½SSI,"Nav1.5; CRY2-5POCRL, BL",−72.13±1.53 mV
same,V½act,"Nav1.5; CRY2-5POCRL, BL",−55.90±2.00 mV
same,left shift in the I-V relationship,"Nav1.5; CRY2-5POCRL, BL",~8.61 mV
same,τinact,"Nav1.5; CRY2-5POCRL, BL",1.68 ± 0.15 ms
same,ILATE,"Nav1.5; CRY2-5POCRL, BL",0.64±0.25%
same,V½SSI,Nav1.5; [4],−73.07±1.54 mV
same,V½act,Nav1.5; [4],−47.29±1.77 mV
same,τinact,Nav1.5; [4],1.24 ± 0.3 ms
same,ILATE,Nav1.5; [4],0.08±0.025%
same,difference in V½act,"Nav1.5; CRY2-5POCRL, diC8PI(4,5)P2 enriched before BL vs BL without diC8PI(4,5)P2",~6.768±2.420 mV
same,difference in ILATE,Nav1.5; [5],2.139±0.5794
same,difference in V½SSI,Nav1.5; [5],−6.518 mV
same,difference in τinact,Nav1.5; [5],1.345 ± 0.3918 ms
same,effect on CRY2-PJ dephosphorylation effect on voltage-dependence of inactivation (SSI),"Nav1.5; diC8PI(4,5)P2 enriched vs depleted",opposed; also recorded: partially opposes
same,effect on CRY2-PJ dephosphorylation effects on Nav1.5,"Nav1.5; diC8PI(4,5)P2 in pipette",did not oppose; also recorded: does not oppose
same,effect on Nav1.5-K1493E ILATE,Nav1.5-K1493E,abolishes; also recorded: opposes
same,effect on further increase in ILATE on activation of CRY2-5ptase,Nav1.5-K1493E,precluded
